Key:
DLD-1 cells = assay: Soft agar assay, colony growth; format: cell-based, human; conditions: highest concentration tested (range 10 μM to 75 μM), one dose, stained 20 days later, FIG. 1
Procedure: The Example 1 and 24 compounds were compared to the COX-2 inhibitor celecoxib in inhibiting the growth of DLD-1 cells in soft agar. DLD-1 cells are human colorectal carcinoma cells that overexpress COX-2. DLD-1 cells grow in soft agar and form tumors in nude mice. The soft agar assay was performed as follows. A layer of bottom agar ([…]) was placed onto 60 mm^2 tissue culture dishes. The tumor cells were trypsinized from normal growth flasks while in exponential growth. The cells were counted by using a hemacytometer and 1.0×10^5 cells were placed into the top agar mixture containing growth medium, 4% noble agar and various concentrations of drugs. The concentration range was normally between 10 μM to 75 μM. The cells were not refed during the assay system; therefore, the cells were treated with one dose of the agents. The plates were stained 20 days later with a 0.05% (w/v) nitroblue tetrazolium solution (which stains only viable cells) for 48 hours. The results are shown in FIG. 1, the y-axis being the percent of cell colonies remaining in comparison to untreated control cells.

[1] = Cyclooxygenase enzyme assay (TLC method), COX-1; format: biochemical, ovine; conditions: second column headed COX-2; preincubation 90-120 min, [1-14C] arachidonic acid 50 μM; read-out: Inhibition of Cyclooxygenase Activity IC50 COX-2
Procedure: Cyclooxygenase activity of ovine COX-1 (Oxford Biomedical Research Inc.) and human recombinant COX-2 (Oxford Biomedical Research Inc.) was assayed by a thin layer chromatography (TLC) method as follows. All inhibitors were dissolved in dimethyl sulfoxide to a stock solution of 5mM. Human recombinant COX-2 (3 units) or ovine COX-1 (15 units) was incubated with inhibitors at several concentrations in a solution containing 100 mM Tris-HCl, pH7.8, 500 μM phenol and hematin for 90 to 120 minutes at room temperature (24° C.). In controls, equal volumes of DMSO without drug were added to the incubation mixture. After incubation for 90-120 minutes, [1-^14C] arachidonic acid (50 μM, 51 mCi/mmol) (DuPont NEN) was added and incubated at 37° C. for 2 minutes. The reaction was terminated by extraction with 1 ml of ethyl acetate. The ethyl acetate layer was transferred into a fresh tube and evaporated to dryness in a Speedvac vacuum dryer. The contents of the tubes were reconstituted in […] of ethyl acetate and spotted on a TLC plate (J. T. Baker, Philipsburg, N.J.) and developed in a mobile phase containing chloroform/methanol (95:5) at 4° C. Radiolabeled prostanoid compounds (the products of COX enzymatic reaction with radiolabeled arachidonic acid substrate) were quantitated with a radioactivity scanner (Fuji, Phosphorimager). […]

**Q.** For NS(=O)(=O)c1ccc(N2N=C(C(F)(F)F)CC2c2ccccc2)cc1 (stereo not shown) [Example 1, 1-(4-Sulfamylphenyl)-3-trifluoromethyl-5-phenyl-2-pyrazoline], which “inhibition of DLD-1 cell colony growth in soft agar” value (DLD-1 cells) is on record?
**A.** The value was 100%.

**Q.** What about the IC50 [1] of the same compound?
**A.** The IC50 was < 100 µM.

**Q.** What does the source list for NS(=O)(=O)c1ccc(N2N=C(C(F)(F)F)CC2c2c[nH]c3ccccc23)cc1 (stereo not shown) [Example 24, 1-(4-Sulfamylphenyl)-3-trifluoromethyl-5-(3-indolyl)-2-pyrazoline]?
**A.** inhibition of DLD-1 cell colony growth in soft agar (DLD-1 cells): 100%; IC50 [1]: < 100 µM
